Assay type: in vivo, Sprague-Dawley rats
Settings: compared with enantiomer E4 and flocoumafen
Experimental: The configurational stereoisomers of flocoumafen are separated by high-pressure liquid chromatography using a LUX® Cellulose-4 chiral column (00F-4490-B0, Phenomenex, Le Pecq, France) as stationary phase and a mixture formed from acetonitrile (A) and water comprising 0.1% by volume of formic acid (B), with an AB volume ratio of 92/8, as mobile phase with a flow rate of the liquid mobile phase in the chromatography column of 0.25 mL/minute. 1 μL of extract to be analysed at a concentration of 1 μg/mL of acetonitrile is injected. Detection is performed by tandem mass spectrometry (MS/MS) in negative electrospray ionization (ESI) mode. The temperature of the nebulizer gas is 350° C. and its flow rate is 8 L/minute. The pressure of the nebulizer gas is brought to 2700 hPa. In particular, the MRM (“Multiple Reaction Monitoring”) transitions m/z 541.1→382.1 and m/z 541.1→161, corresponding to the flocoumafen signal, are analysed.
About 0.525 g (±0.025 g) of rat liver is weighed out accurately and placed in a 50 mL polypropylene tube. 10 mL of acetone are added and the suspension is homogenized using an Ultra-Turrax® homogenizer/disperser for a time of about 30 seconds. The homogenizer/disperser shaft is rinsed with hot water and then twice with 20 mL of acetone in a polypropylene tube. The homogenate is centrifuged for 5 minutes at a centrifugation speed of 3000 rpm (revolutions per minute). […]

Structure (SMILES): O=c1oc2ccccc2c(O)c1C1CC(c2ccc(OCc3ccc(C(F)(F)F)cc3)cc2)Cc2ccccc21 (single isomer, unassigned) [Enantiomer E2]
- Persistence in the liver of the male and female rats: lower than the persistence of enantiomer E4 of said diastereoisomer D1,4 and lower than the persistence of flocoumafen
